From US7041678B2 (priority 1999, dated 2006)
Entries after “also recorded” stand apart in the source; their conditions may differ.

What was measured:
nor-1 gene = format: cell-based, Aspergillus parasiticus SU-1
nor-1 promoter [1] = format: cell-based, Aspergillus parasiticus
ver-1 promoter = assay: Transcription from the ver-1 promoter; format: cell-based, Aspergillus parasiticus
ipnA promoter = format: cell-based, Aspergillus nidulans
tri5 promoter = format: cell-based, Gibberella zeae
nor-1 promoter [2] = format: cell-based, Aspergillus parasiticus; remark: listed apart in the source
aflatoxin biosynthesis = format: cell-based, Aspergillus parasiticus SU-1

`CCCCC/C=C/CCCCCC/C=C/C=C/C(=O)N1CCCCC1` [Cp2] was tested, and the “Transcription of the nor-1 gene” value (nor-1 gene) was “inhibits”, the “nor-1 transcription at lower concentrations” value (nor-1 gene) was “did not completely inhibit” and the “Transcription from the nor-1 promoter” value (nor-1 promoter [1]) was “inhibit transcription”. For the same molecule, the “Transcription from the ver-1 promoter” value (ver-1 promoter) was “inhibit transcription”, the “Transcription from the ipnA promoter (GUS)” value (ipnA promoter) was “inhibit transcription; also recorded: inhibited” and the “Transcription from the tri5 promoter (GUS)” value (tri5 promoter) was “inhibit transcription; also recorded: inhibited”. For the same molecule, the “Fungus growth on TLC plates” value (nor-1 promoter [2]) was “Fungal growth was seen; also recorded: did not inhibit fungus growth”, the “Inhibition of GUS in TLC bioassay” value (nor-1 promoter [2]) was “inhibitory properties” and the “Concentration that appeared to completely inhibit biosynthesis of aflatoxin” value (aflatoxin biosynthesis) was “greater than 26 μg/ml”. For the same molecule, the “Amounts of aflatoxins B1 and G1” value (aflatoxin biosynthesis; 2.6-78 μg/ml, 48 hours) was “reduction”.
